Activity calls are given as the source filed them. No rule for the calls is given here.
Test system: CCRIS mutagenicity, Ames/micronucleus/aberration tests
Test: CCRIS mutagenicity studies

SMILES: ClC(Cl)=C(Cl)Cl
- mutagenic call (End Point: IN VITRO CHROMOSOMAL ABERRATIONS, Test System: CHINESE HAMSTER OVARY CELLS, Metabolic Activation: NONE): inactive; negative
- mutagenic call (End Point: IN VITRO CHROMOSOMAL ABERRATIONS, Test System: CHINESE HAMSTER OVARY CELLS, Metabolic Activation: RAT, LIVER, S-9, AROCLOR 1254): inactive; negative
- mutagenic call (End Point: IN VITRO CHROMOSOMAL ABERRATIONS, Test System: CHL/IU CELLS, Metabolic Activation: NONE): inactive; negative
- mutagenic call (End Point: IN VITRO CHROMOSOMAL ABERRATIONS, Test System: CHO CELLS, Metabolic Activation: NONE): inactive; negative
- mutagenic call (End Point: IN VITRO CHROMOSOMAL ABERRATIONS, Test System: CHO CELLS, Metabolic Activation: RAT, LIVER, S-9, AROCLOR 1254): inactive; negative
- mutagenic call (End Point: IN VITRO MICRONUCLEUS, Test System: CHL/IU CELLS, Metabolic Activation: NONE): inactive; negative
- mutagenic call (Test System: AMES SALMONELLA TYPHIMURIUM, Strain/Indicator: TA98, Metabolic Activation: HAMSTER, LIVER, S-9, AROCLOR 1254, Method: PREINCUBATION): inactive; negative
- mutagenic call (Test System: AMES SALMONELLA TYPHIMURIUM, Strain/Indicator: TA98, Metabolic Activation: NONE, Method: PREINCUBATION): inactive; negative
- mutagenic call (Test System: AMES SALMONELLA TYPHIMURIUM, Strain/Indicator: TA98, Metabolic Activation: NONE, Method: STANDARD PLATE): inactive; negative
- mutagenic call (Test System: AMES SALMONELLA TYPHIMURIUM, Strain/Indicator: TA98, Metabolic Activation: RAT, LIVER, S-9, AROCLOR 1254, Method: PREINCUBATION): inactive; negative
- mutagenic call (Test System: AMES SALMONELLA TYPHIMURIUM, Strain/Indicator: TA98, Metabolic Activation: RAT, LIVER, S-9, AROCLOR, Method: STANDARD PLATE): inactive; negative
- mutagenic call (Test System: AMES SALMONELLA TYPHIMURIUM, Strain/Indicator: TA100, Metabolic Activation: HAMSTER, LIVER, S-9, AROCLOR 1254, Method: PREINCUBATION): inactive; negative
- mutagenic call (Test System: AMES SALMONELLA TYPHIMURIUM, Strain/Indicator: TA100, Metabolic Activation: HAMSTER, LIVER, S-9, SODIUM PHENOBARBITAL, Method: STANDARD PLATE (SEALED PLATE)): inactive; negative
- mutagenic call (Test System: AMES SALMONELLA TYPHIMURIUM, Strain/Indicator: TA100, Metabolic Activation: MOUSE, LIVER, S-9, SODIUM PHENOBARBITAL, Method: STANDARD PLATE (SEALED PLATE)): inactive; negative
- mutagenic call (Test System: AMES SALMONELLA TYPHIMURIUM, Strain/Indicator: TA100, Metabolic Activation: NONE, Method: BAG VAPORIZATION): inactive; negative
- mutagenic call (Test System: AMES SALMONELLA TYPHIMURIUM, Strain/Indicator: TA100, Metabolic Activation: NONE, Method: PREINCUBATION): inactive; negative
- mutagenic call (Test System: AMES SALMONELLA TYPHIMURIUM, Strain/Indicator: TA100, Metabolic Activation: NONE, Method: SPOT): active; positive
- mutagenic call (Test System: AMES SALMONELLA TYPHIMURIUM, Strain/Indicator: TA100, Metabolic Activation: NONE, Method: STANDARD PLATE): inactive; negative
- mutagenic call (Test System: AMES SALMONELLA TYPHIMURIUM, Strain/Indicator: TA100, Metabolic Activation: NONE, Method: STANDARD PLATE (SEALED PLATE)): inactive; negative
- mutagenic call (Test System: AMES SALMONELLA TYPHIMURIUM, Strain/Indicator: TA100, Metabolic Activation: RAT, KIDNEY, MICROSOMES AND RAT, LIVER, GLUTATHIONE AND GLUTATHIONE TRANSFERASE, Method: PREINCUBATION): active; positive
- mutagenic call (Test System: AMES SALMONELLA TYPHIMURIUM, Strain/Indicator: TA100, Metabolic Activation: RAT, LIVER, S-9, AROCLOR 1254, Method: BAG VAPORIZATION): inactive; negative
- mutagenic call (Test System: AMES SALMONELLA TYPHIMURIUM, Strain/Indicator: TA100, Metabolic Activation: RAT, LIVER, S-9, AROCLOR 1254, Method: PREINCUBATION): inactive; negative
- mutagenic call (Test System: AMES SALMONELLA TYPHIMURIUM, Strain/Indicator: TA100, Metabolic Activation: RAT, LIVER, S-9, AROCLOR, Method: STANDARD PLATE): inactive; negative
- mutagenic call (Test System: AMES SALMONELLA TYPHIMURIUM, Strain/Indicator: TA100, Metabolic Activation: RAT, LIVER, S-9, SODIUM PHENOBARBITAL, Method: STANDARD PLATE (SEALED PLATE)): inactive; negative
- mutagenic call (Test System: AMES SALMONELLA TYPHIMURIUM, Strain/Indicator: TA102, Metabolic Activation: MOUSE, LIVER, S-9, SODIUM PHENOBARBITAL, Method: STANDARD PLATE (SEALED PLATE)): inactive; negative
- mutagenic call (Test System: AMES SALMONELLA TYPHIMURIUM, Strain/Indicator: TA102, Metabolic Activation: NONE, Method: STANDARD PLATE (SEALED PLATE)): inactive; negative
- mutagenic call (Test System: AMES SALMONELLA TYPHIMURIUM, Strain/Indicator: TA102, Metabolic Activation: S-9, Method: STANDARD PLATE): inactive; negative
- mutagenic call (Test System: AMES SALMONELLA TYPHIMURIUM, Strain/Indicator: TA104, Metabolic Activation: MOUSE, LIVER, S-9, SODIUM PHENOBARBITAL, Method: STANDARD PLATE (SEALED PLATE)): inactive; negative
- mutagenic call (Test System: AMES SALMONELLA TYPHIMURIUM, Strain/Indicator: TA104, Metabolic Activation: NONE, Method: STANDARD PLATE (SEALED PLATE)): inactive; negative
- mutagenic call (Test System: AMES SALMONELLA TYPHIMURIUM, Strain/Indicator: TA1535, Metabolic Activation: HAMSTER, LIVER, S-9, AROCLOR 1254, Method: PREINCUBATION): inactive; negative
- mutagenic call (Test System: AMES SALMONELLA TYPHIMURIUM, Strain/Indicator: TA1535, Metabolic Activation: MOUSE, LIVER, S-9, SODIUM PHENOBARBITAL, Method: STANDARD PLATE (SEALED PLATE)): inactive; negative
- mutagenic call (Test System: AMES SALMONELLA TYPHIMURIUM, Strain/Indicator: TA1535, Metabolic Activation: NONE, Method: PREINCUBATION): inactive; negative
- mutagenic call (Test System: AMES SALMONELLA TYPHIMURIUM, Strain/Indicator: TA1535, Metabolic Activation: NONE, Method: STANDARD PLATE (SEALED PLATE)): inactive; negative
- mutagenic call (Test System: AMES SALMONELLA TYPHIMURIUM, Strain/Indicator: TA1535, Metabolic Activation: RAT, LIVER, S-9, AROCLOR 1254, Method: PREINCUBATION): inactive; negative
- mutagenic call (Test System: AMES SALMONELLA TYPHIMURIUM, Strain/Indicator: TA1537, Metabolic Activation: HAMSTER, LIVER, S-9, AROCLOR 1254, Method: PREINCUBATION): inactive; negative
- mutagenic call (Test System: AMES SALMONELLA TYPHIMURIUM, Strain/Indicator: TA1537, Metabolic Activation: NONE, Method: PREINCUBATION): inactive; negative
- mutagenic call (Test System: AMES SALMONELLA TYPHIMURIUM, Strain/Indicator: TA1537, Metabolic Activation: RAT, LIVER, S-9, AROCLOR 1254, Method: PREINCUBATION): inactive; negative
- mutagenic call (Test System: AMES SALMONELLA TYPHIMURIUM, Strain/Indicator: TA2638, Metabolic Activation: S-9, Method: STANDARD PLATE): inactive; negative
- mutagenic call (Test System: AMES SALMONELLA TYPHIMURIUM, Strain/Indicator: UTH8413, Metabolic Activation: NONE, Method: STANDARD PLATE): inactive; negative
- mutagenic call (Test System: AMES SALMONELLA TYPHIMURIUM, Strain/Indicator: UTH8413, Metabolic Activation: RAT, LIVER, S-9, AROCLOR, Method: STANDARD PLATE): inactive; negative
- mutagenic call (Test System: AMES SALMONELLA TYPHIMURIUM, Strain/Indicator: UTH8414, Metabolic Activation: NONE, Method: STANDARD PLATE): inactive; negative
- mutagenic call (Test System: AMES SALMONELLA TYPHIMURIUM, Strain/Indicator: UTH8414, Metabolic Activation: RAT, LIVER, S-9, AROCLOR, Method: STANDARD PLATE): inactive; negative
- mutagenic call (Test System: Ames Salmonella typhimurium, Strain/Indicator: TA98, Metabolic Activation: None, Method: Gas exposure method): inactive; negative (two experiments)
- mutagenic call (Test System: Ames Salmonella typhimurium, Strain/Indicator: TA98, Metabolic Activation: Rat, Liver, S9, Sodium phenobarbital and 5,6-benzoflavone (10%), Method: Gas exposure method): inactive; negative (two experiments)
- mutagenic call (Test System: Ames Salmonella typhimurium, Strain/Indicator: TA100, Metabolic Activation: None, Method: Gas exposure method): inactive; negative (two experiments)
- mutagenic call (Test System: Ames Salmonella typhimurium, Strain/Indicator: TA100, Metabolic Activation: Rat, Liver, S9, Sodium phenobarbital and 5,6-benzoflavone (10%), Method: Gas exposure method): inactive; negative (two experiments)
- mutagenic call (Test System: Ames Salmonella typhimurium, Strain/Indicator: TA1535, Metabolic Activation: None, Method: Gas exposure method): active; positive (two experiments)
- mutagenic call (Test System: Ames Salmonella typhimurium, Strain/Indicator: TA1535, Metabolic Activation: Rat, Liver, S9, Sodium phenobarbital and 5,6-benzoflavone (10%), Method: Gas exposure method): active; positive (two experiments)
- mutagenic call (Test System: Ames Salmonella typhimurium, Strain/Indicator: TA1537, Metabolic Activation: None, Method: Gas exposure method): inactive; negative (two experiments)
- mutagenic call (Test System: Ames Salmonella typhimurium, Strain/Indicator: TA1537, Metabolic Activation: Rat, Liver, S9, Sodium phenobarbital and 5,6-benzoflavone (10%), Method: Gas exposure method): inactive; negative (two experiments)
- mutagenic call (Test System: CHO/HGPRT, Strain/Indicator: CHO/GIEMSA, Metabolic Activation: NONE, Method: STANDARD PLATE): inactive; negative
- mutagenic call (Test System: CHO/HGPRT, Strain/Indicator: CHO/GIEMSA, Metabolic Activation: RAT, LIVER, S-9, AROCLOR 1254, Method: STANDARD PLATE): inactive; negative
- mutagenic call (Test System: E. COLI, Strain/Indicator: WP2 (PKM101), Metabolic Activation: S-9, Method: STANDARD PLATE): inactive; negative
- mutagenic call (Test System: E. COLI, Strain/Indicator: WP2 UVRA (PKM101), Metabolic Activation: S-9, Method: STANDARD PLATE): inactive; negative
- mutagenic call (Test System: E. coli, Strain/Indicator: WP2uvrA/pKM101, Metabolic Activation: None, Method: Gas exposure method): inactive; negative (two experiments)
- mutagenic call (Test System: E. coli, Strain/Indicator: WP2uvrA/pKM101, Metabolic Activation: Rat, Liver, S9, Sodium phenobarbital and 5,6-benzoflavone (10%), Method: Gas exposure method): inactive; negative (two experiments)
- mutagenic call (Test System: MOUSE LYMPHOMA, Strain/Indicator: L5178Y (TK+/TK-), Metabolic Activation: NONE, Method: SUSPENSION/PLATE): inactive; negative
- mutagenic call (Test System: MOUSE LYMPHOMA, Strain/Indicator: L5178Y (TK+/TK-), Metabolic Activation: RAT, LIVER, S-9, AROCLOR 1254, Method: SUSPENSION/PLATE): inactive; negative

Reference: PubChem BioAssay AID1259407 (Chemical Carcinogenesis Research Information System (CCRIS), 2018)
